# Source: US20160074466A1, “ANGIOTENSINS FOR TREATMENT OF FIBROSIS” (UNIVERSITY OF SOUTHERN CALIFORNIA, priority 2011, published 2016)
# Assays:
# [1] = Non-fasting whole blood glucose in STZ/high fat diet NASH mice; assay type: in vivo
# Source text: (§1) In this example, NASH was induced in 48 male mice by a single subcutaneous injection of streptozotocin (STZ, Sigma-Aldrich, USA) solution 2 days after birth and feeding with high fat diet (HFD, 57 kcal % fat, cat#HFD32, CLEA Japan, Japan) after 4 weeks of age. The mice were randomized into 6 groups of 8 mice at 7 weeks of age according to Table 1 below. Eight male littermates, fed with normal diet without STZ treatment, were used for the Normal group.
# (§2) Group 1 (normal) consisted of eight normal mice fed with a normal diet ad libitum without any treatment. Group 2 (vehicle) consisted of eight NASH mice that were subcutaneously administered vehicle at a volume of 5 mL/kg once daily from 7 to 10 weeks of age. Group 3 (TXA127-30 μg) consisted of eight NASH mice that were subcutaneously administered vehicle supplemented with TXA127 at a dose of 30 μg/5 mL/kg once daily from 7 to 10 weeks of age. Group 4 (TXA127-100 μg) consisted of eight NASH mice that were subcutaneously administered vehicle supplemented with TXA127 at a dose of 100 μg/5 mL/kg once daily from 7 to 10 weeks of age. Group 5 (TXA127-300 μg) consisted of eight NASH mice that were subcutaneously administered vehicle supplemented with TXA127 at a dose of 300 μg/5 mL/kg once daily from 7 to 10 weeks of age. Group 6 (TXA127-1,000 μg) consisted of eight NASH mice that were subcutaneously administered vehicle supplemented with TXA127 at a dose of 1,000 μg/5 mL/kg once daily from 7 to 10 weeks of age. Group 7 consisted of eight NASH mice that were orally administered pure water supplemented with Telmisartan at a dose of 15 mg/10 mL/kg once daily from 8 to 10 weeks of age.
# (§3) Vehicle (saline) and TXA127 were administered via subcutaneous administration to the mice in a volume of 5 mL/kg body weight. Telmisartan was administered by oral route to the mice in a volume of 10 mL/kg body weight. TXA127 was dissolved in saline, and Telmisartan (MICARDIS®) was purchased from Boehringer Ingelheim GmbH and was dissolved in pure water. TXA127 was administered once daily at the doses of 30, 100, 300 or 1000 μg/kg body weight. Telmisartan was administered once daily at the dose of 15 mg/kg body weight.
# (§4) Non-fasting whole blood glucose levels were measured in whole blood samples using G Checker (Sanko Junyaku, Japan). For plasma biochemistry, blood was collected in polypropylene tubes with anticoagulant (Novo-Heparin, Mochida Pharmaceutical, Japan) and centrifuged at 1,000×g for 15 minutes at 4° C. The supernatant was collected and stored at −80° C. until use. The plasma levels of ALT, AST, and ALP were measured by FUJI DRI-CHEM 7000 (Fuji Film, Japan).
# [2] = Plasma ALT, AST and ALP levels in STZ/high fat diet NASH mice; assay type: in vivo
# Source text: as §1, §2, §3, §4
# NASH mice [3] = experiment: Liver hydroxyproline content in NASH mice; assay type: in vivo; conditions: normalized by total protein
# Source text: as §1, §2, §3
# To quantify liver hydroxyproline content, frozen livers (40-60 mg) were minced and defatted in acetone for 30 minutes at room temperature. After centrifugation, the pellets were air-dried and dissolved in 400 μL of 2N NaOH at 65° C. The liver lysates were autoclaved at 121° C. for 20 minutes. The samples were then acid-hydrolyzed with 400 μL of 6N HCl at 121° C. for 20 minutes, and neutralized with 400 μL of 10 mg/mL activated carbon in 4N NaOH. The neutralized samples were buffered with 2.2 M acetic acid/0.48 M citric acid buffer and centrifuged to obtain the supernatant. In order to construct a standard curve of hydroxyproline, serial dilutions of trans-4-hydroxy-L-proline standard (Sigma, USA) were prepared starting at 16 μg/mL. Five hundred μL of the supernatant and standard were added to 500 μL chloramine T in 10% n-propanol/acetate-citrate buffer and incubated for 25 minutes at room temperature. […] After samples were cooled on ice and centrifuged to collect the supernatant, the optical density of each supernatant and standard was measured at 560 nm and the concentration of liver hydroxyproline was calculated form the hydroxyproline standard curve. Protein concentrations of each supernatant were determined using a BCA protein assay kit (Thermo Scientific, USA). […]
# NASH mice [4] = experiment: Sirius red staining of liver sections, fibrosis area, in NASH mice; assay type: in vivo
# Source text: as §1, §2, §3
# For quantitative analysis of fibrosis areas, bright field images of
# Sirius red-stained sections were captured using a digital camera (DFC280, Leica, Germany) around central veins at 200-fold magnification, and the positive areas in 5 fields/section were quantified using ImageJ software (National Institute of Health, USA).
# Collagen Type 1 mRNA = experiment: Quantitative RT-PCR of liver, Collagen Type 1 mRNA; assay type: in vivo, mice
# Protocol: (§5) The animals, groups, treatment conditions and time points are the same as for Example 3 above. Livers were harvested from the animals in Example 3 and subjected to the following analysis.
# (§6) Total RNA was extracted from liver samples using RNAiso (Takara Bio, Japan) according to the manufacturer's instructions. One μg of RNA was reverse-transcribed using a reaction mixture containing 4.5 mM MgCl2 (Roche, Switzerland), 40 U RNase inhibitor (Toyobo, Japan), 0.5 mM dNTP (Promega, USA), 6.28 μM random hexamer (Promega), 5× first strand buffer (Promega), 6.6 mM dithiothreitol (Invitrogen, USA) and MMLV-RT (Invitrogen) in a final volume of 20 μL. The reaction was carried out for 1 hour at 37° C., followed by 5 minutes at 99° C. Real-time PCR was performed using real-time PCR DICE and SYBR premix Taq (Takara Bio). To calculate the relative mRNA expression level, the expression of each gene was normalized to that of reference gene 36B4 (gene symbol: Rp1p0). Statistical analyses were performed using Bonferroni Multiple Comparison Test on Prism Software 4. P values <0.05 were considered statistically significant. The expression level of Collagen Type I, collagen type 3, α-SMA, TGF-β, CCR2, and TIMP-1 mRNA were assessed.
# Collagen Type 3 mRNA = experiment: Quantitative RT-PCR of liver, Collagen Type 3 mRNA; assay type: in vivo, mice
# Protocol: as §5, §6
# α-SMA mRNA = experiment: Quantitative RT-PCR of liver, α-SMA mRNA; assay type: in vivo, mice
# Protocol: as §5, §6
# TGF-β mRNA = experiment: Quantitative RT-PCR of liver, TGF-β mRNA; assay type: in vivo, mice
# Protocol: as §5, §6
# CCR2 mRNA = experiment: Quantitative RT-PCR of liver, CCR2 mRNA; assay type: in vivo, mice
# Protocol: as §5, §6
# TIMP-1 mRNA = experiment: Quantitative RT-PCR of liver, TIMP-1 mRNA; assay type: in vivo, mice
# Protocol: as §5, §6
# NASH mice [5] = experiment: Liver weight, NAS and inflammatory cell infiltration in NASH mice (summary statements); assay type: in vivo
# Source text: as §1, §2
# as §3, with “Telmisartan was administered once daily at the dose of 15 mg/kg body weight.” left out
# [6] = 15 mg/kg oral QD, 8-10 wks of age
# [7] = relative to 36B4, Normal = 1.00, 15 mg/kg oral QD
# [8] = 15 mg/kg oral QD, compared with the Vehicle group
# [9] = 30 μg/kg SQ QD, 7-10 wks of age
# [10] = 100 μg/kg SQ QD, 7-10 wks of age
# [11] = 300 μg/kg SQ QD, 7-10 wks of age
# [12] = 1000 μg/kg SQ QD, 7-10 wks of age
# [13] = relative to 36B4, Normal = 1.00, 30 μg/kg SQ QD
# [14] = relative to 36B4, Normal = 1.00, 100 μg/kg SQ QD
# [15] = relative to 36B4, Normal = 1.00, 300 μg/kg SQ QD
# [16] = relative to 36B4, Normal = 1.00, 1000 μg/kg SQ QD
compound,measurement,setting,value
"CCCc1nc2c(C)cc(-c3nc4ccccc4n3C)cc2n1Cc1ccc(-c2ccccc2C(=O)O)cc1 [Telmisartan, reference compound]",non-fasting blood glucose levels in whole blood,"[1]; 15 mg/kg oral QD, 8-10 wks of age, detection limit 900 mg/dL",900 ± 0 mg/dL
same,plasma ALP levels,[2]; [6],605±130 U/L
same,plasma ALT levels,[2]; [6],41±10 U/L
same,plasma AST levels,[2]; [6],232±141 U/L
same,liver hydroxyproline content,NASH mice [3]; [6],1.46 ± 0.69 µg/mg
same,percentage of fibrosis area (Sirius red-positive area),NASH mice [4]; [6],0.44±0.12%
same,Collagen Type 1 mRNA expression levels,Collagen Type 1 mRNA; [7],3.14±0.59
same,Collagen Type 3 mRNA expression levels,Collagen Type 3 mRNA; [7],2.09±0.50
same,α-SMA mRNA expression levels,α-SMA mRNA; [7],2.07±0.87
same,TGF-β mRNA expression levels,TGF-β mRNA; [7],1.58±0.23
same,CCR2 mRNA expression levels,CCR2 mRNA; [7],1.94±0.37
same,TIMP-1 mRNA expression levels,TIMP-1 mRNA; [7],4.22±1.52
same,NAS,NASH mice [5]; [8],significantly decreased
same,liver weight,NASH mice [5]; [8],significantly decreased
"TXA127: test substance dissolved in saline, given subcutaneously; not defined in the text, apparently the angiotensin-(1-7) peptide (DRVYIHP; Angiotensin 1-7; UniProt P01019 25-31, looked up)",non-fasting blood glucose levels in whole blood,[1]; [9],675 ± 103 mg/dL
same,non-fasting blood glucose levels in whole blood,[1]; [10],590 ± 131 mg/dL
same,non-fasting blood glucose levels in whole blood,[1]; [11],639 ± 76 mg/dL
same,non-fasting blood glucose levels in whole blood,[1]; [12],632 ± 92 mg/dL
same,plasma ALP levels,[2]; [9],428±61 U/L
same,plasma ALT levels,[2]; [9],46±15 U/L
same,plasma AST levels,[2]; [9],160±94 U/L
same,plasma ALP levels,[2]; [10],358±75 U/L
same,plasma ALT levels,[2]; [10],89±56 U/L
same,plasma AST levels,[2]; [10],352±174 U/L
same,plasma ALP levels,[2]; [11],472±100 U/L
same,plasma ALT levels,[2]; [11],43±17 U/L
same,plasma AST levels,[2]; [11],149±50 U/L
same,plasma ALP levels,[2]; [12],397±96 U/L
same,plasma ALT levels,[2]; [12],41±10 U/L
same,plasma AST levels,[2]; [12],142±32 U/L
same,liver hydroxyproline content,NASH mice [3]; [9],1.22 ± 0.29 µg/mg
same,liver hydroxyproline content,NASH mice [3]; [10],0.88 ± 0.17 µg/mg
same,liver hydroxyproline content,NASH mice [3]; [11],1.24 ± 0.51 µg/mg
same,liver hydroxyproline content,NASH mice [3]; [12],1.34 ± 0.69 µg/mg
same,percentage of fibrosis area (Sirius red-positive area),NASH mice [4]; [9],0.88±0.33%
same,percentage of fibrosis area (Sirius red-positive area),NASH mice [4]; [10],0.55±0.29%
same,percentage of fibrosis area (Sirius red-positive area),NASH mice [4]; [11],0.54±0.18%
same,percentage of fibrosis area (Sirius red-positive area),NASH mice [4]; [12],0.51±0.09%
same,Collagen Type 1 mRNA expression levels,Collagen Type 1 mRNA; [13],4.48±0.91
same,Collagen Type 1 mRNA expression levels,Collagen Type 1 mRNA; [14],3.37±1.58
same,Collagen Type 1 mRNA expression levels,Collagen Type 1 mRNA; [15],3.06±1.12
same,Collagen Type 1 mRNA expression levels,Collagen Type 1 mRNA; [16],2.77±0.77
same,Collagen Type 3 mRNA expression levels,Collagen Type 3 mRNA; [13],3.23±0.54
same,Collagen Type 3 mRNA expression levels,Collagen Type 3 mRNA; [14],2.82±1.50
same,Collagen Type 3 mRNA expression levels,Collagen Type 3 mRNA; [15],2.81±0.89
same,Collagen Type 3 mRNA expression levels,Collagen Type 3 mRNA; [16],2.24±0.68
same,α-SMA mRNA expression levels,α-SMA mRNA; [13],2.88±1.08
same,α-SMA mRNA expression levels,α-SMA mRNA; [14],2.65±2.46
same,α-SMA mRNA expression levels,α-SMA mRNA; [15],2.49±0.98
same,α-SMA mRNA expression levels,α-SMA mRNA; [16],1.92±0.67
same,TGF-β mRNA expression levels,TGF-β mRNA; [13],2.35±0.44
same,TGF-β mRNA expression levels,TGF-β mRNA; [14],1.93±0.44
same,TGF-β mRNA expression levels,TGF-β mRNA; [15],1.69±0.49
same,TGF-β mRNA expression levels,TGF-β mRNA; [16],1.70±0.35
same,CCR2 mRNA expression levels,CCR2 mRNA; [13],2.60±0.60
same,CCR2 mRNA expression levels,CCR2 mRNA; [14],3.26±2.01
same,CCR2 mRNA expression levels,CCR2 mRNA; [15],2.82±0.88
same,CCR2 mRNA expression levels,CCR2 mRNA; [16],3.10±1.55
same,TIMP-1 mRNA expression levels,TIMP-1 mRNA; [13],6.74±1.93
same,TIMP-1 mRNA expression levels,TIMP-1 mRNA; [14],9.80±8.93
same,TIMP-1 mRNA expression levels,TIMP-1 mRNA; [15],7.54±3.05
same,TIMP-1 mRNA expression levels,TIMP-1 mRNA; [16],8.54±6.41
same,inflammatory cell infiltration,"NASH mice [5]; all doses (30, 100, 300, 1000 μg/kg SQ QD)",decreased inflammatory cell infiltration
